This note sets out measurements from publication PMC5379127, “Plackett-Burman Design for rGILCC1 Laccase Activity Enhancement in Pichia pastoris: Concentrated Enzyme Kinetic Characterization” (Enzyme Research, 2017).

For this experiment, the system named is T1, rGILCC1 laccase (GlLCC1).
T1 construct: previously optimized synthetic gene in pGAPZalphaA (pGAPZαA-LacGluc-Stop, also pGAPZαA-GlucPost-Stop, clone 1), secreted by Pichia pastoris X33; concentrated culture supernatant (10 kDa membrane), not purified
Description: spectrophotometric ABTS oxidation at […] nm, Hanes-Woolf. To be noted: concentrated culture supernatant, not pure enzyme; 600 mM sodium acetate buffer, pH 4.5, 25°C; read-out: apparent Km. Type of experiment: biochemical, Ganoderma lucidum.

A word on the Km: it is the substrate concentration at which the rate is half of its maximum. Consider `CCn1c(=NN=c2sc3cc(S(=O)(=O)O)ccc3n2CC)sc2cc(S(=O)(=O)O)ccc21` [ABTS, 2,20-azino-bis(3-ethylbenzothiazoline-6-sulphonic acid)], for which the Km stood at 53.6 µM.
